In brackets after ≈: the same amount, converted by molar mass.
Key:
[1] = system: Mycobacterium tuberculosis; assay: Antimycobacterial activity against multidrug resistance Mycobacterium tuberculosis CCM10.1 assessed as reduction in bacterial growth incubated for 7 days by resazurin based assay; type: functional; conditions: CCM10.1, 168 h
[2] = system: Mycobacterium tuberculosis; assay: Antimycobacterial activity against multidrug resistance Mycobacterium tuberculosis CCM11.1 assessed as reduction in bacterial growth incubated for 7 days by resazurin based assay; type: functional; conditions: CCM11.1, 168 h

Row | Structure (SMILES) | MIC [1] [µg/mL] | MIC [2] [µg/mL]
1 | Cc1cc(CNCC2CCCCC2)c(C)n1-c1ccc(Cl)cc1 | < 0.000625 | 0.12 (≈ 0.363 µM)
2 | Cc1cc(CNC2CCCCC2)c(C)n1-c1ccc(C(C)C)cc1 | 0.00125 (≈ 0.00385 µM) | 0.5 (≈ 1.54 µM)
3 | COc1ccc(-n2c(C)cc(CNC3CCCCC3)c2C)cc1 | < 0.000625 | 0.5 (≈ 1.6 µM)
4 | Cc1cc(CN[C@H]2C[C@@H]3CC[C@H]2C3)c(C)n1-c1ccc(Cl)cc1 | 0.0025 (≈ 0.0076 µM) | 1 (≈ 3.04 µM)

Reference: ChEMBL document CHEMBL4613277, “Improving the Potency of N-Aryl-2,5-dimethylpyrroles against Multidrug-Resistant and Intracellular Mycobacteria” (ACS Med Chem Lett, 2020)
